Source: the supplement of paper PMC11061612

These compounds were tested on U-698-M. Settings: B-Cell Non-Hodgkin's Lymphoma, max 0.001 µM.
In short: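 Viability was measured with CellTiter-Glo 2.0 luminescence after 72 hours of dosing at a final DMSO of typically 0.2%, and scaled between blank-well and DMSO-well means. Beforehand, cancer cell lines sat 24 hours at 37°C and 5% CO2 in 1536-well plates in 7.5 μl DMEM/F12 or RPMI with 10% FBS. A non-linear mixed effects model fitted two-parameter logistic curves to the dose responses. The single-agent IC50 comes from these fits.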

| Structure (SMILES) | IC50, cell viability 72 h [nM] |
| --- | --- |
| COc1cc2c(cc1OCCCCCOc1cc3c(cc1OC)C(=O)N1C=C(C)C[C@H]1C=N3)N=C[C@@H]1CC(C)=CN1C2=O [SG3199] | > 1 |

Same assay, conditions: B-Cell Non-Hodgkin's Lymphoma, max 0.3 µM

| Structure (SMILES) | IC50, cell viability 72 h [nM] |
| --- | --- |
| CC(C)n1c(=O)n(C)c2cnc3cc(F)c(-c4ccc(OCCCN5CCCCC5)nc4)cc3c21 [AZD1390] | > 300 |
| CCc1c2c(nc3ccc(O)cc13)-c1cc3c(c(=O)n1C2)COC(=O)[C@]3(O)CC [SN-38] | 22 |
| Nc1ccn([C@@H]2O[C@H](CO)[C@@H](O)C2(F)F)c(=O)n1 [Gemcitabine] | 130 |

Same assay, conditions: B-Cell Non-Hodgkin's Lymphoma, max 1 µM

| Structure (SMILES) | IC50, cell viability 72 h [nM] |
| --- | --- |
| COc1nnc2ccc(N3CCC(c4ccc(OCCN5CCN(C)C(=O)[C@H]5C)cc4)CC3)nn12 [AZD5153] | 265 |
| CC1(C)CCC(CN2CCN(c3ccc(C(=O)NS(=O)(=O)c4ccc(NCC5CCOCC5)c([N+](=O)[O-])c4)c(Oc4cnc5[nH]ccc5c4)c3)CC2)=C(c2ccc(Cl)cc2)C1 [Venetoclax] | > 1000 |
| CN(CCO)CC[C@H](CSc1ccccc1)Nc1ccc(S(=O)(=O)NC(=O)c2ccc(N3CCC([C@@H](O)c4ccccc4-c4ccc(Cl)cc4)CC3)cc2)cc1S(=O)(=O)C(F)(F)F [AZD4320] | > 1000 |
| CC(=O)Nc1cccc(-n2c(=O)n(C3CC3)c(=O)c3c(Nc4ccc(I)cc4F)n(C)c(=O)c(C)c32)c1 [Trametinib] | > 1000 |
| COc1cccc(OCCCN)c1-c1cc(Nc2cnc(C#N)cn2)n[nH]1 [Prexasertib] | 11.1 |
| COc1cccc2c1C(=O)c1c(O)c3c(c(O)c1C2=O)C[C@@](O)(C(=O)CO)C[C@@H]3O[C@H]1C[C@H](N)[C@H](O)[C@H](C)O1 [Doxorubicin] | 495 |
| C[C@@H](c1ccc2nccn2c1)n1nnc2ncc(-c3cnn(C)c3)nc21 [Savolitinib] | > 1000 |

Same assay, conditions: B-Cell Non-Hodgkin's Lymphoma, max 2 µM

| Structure (SMILES) | IC50, cell viability 72 h [nM] |
| --- | --- |
| Cc1nc(Nc2ncc(C(=O)Nc3c(C)cccc3Cl)s2)cc(N2CCN(CCO)CC2)n1 [Dasatinib] | > 2000 |

Same assay, conditions: B-Cell Non-Hodgkin's Lymphoma, max 3 µM

| Structure (SMILES) | IC50, cell viability 72 h [nM] |
| --- | --- |
| CN(C)CCCOc1ccc(-c2ccc3ncc4c(c3c2)n(C2CCOCC2)c(=O)n4C)cn1 [AZD0156] | > 3000 |
| CC(=O)O[C@H]1C(=O)[C@@]2(C)[C@H]([C@H](OC(=O)c3ccccc3)[C@]3(O)C[C@H](OC(=O)[C@H](O)[C@@H](NC(=O)c4ccccc4)c4ccccc4)C(C)=C1C3(C)C)[C@]1(OC(C)=O)CO[C@@H]1C[C@@H]2O [Paclitaxel] | 5.9 |

Same assay, conditions: B-Cell Non-Hodgkin's Lymphoma, max 10 µM

| Structure (SMILES) | IC50, cell viability 72 h [nM] |
| --- | --- |
| C[C@@H](Nc1cc(F)cc(F)c1)c1cc(C(=O)N(C)C)cc2c(=O)cc(N3CCOCC3)oc12 [AZD8186] | > 10000 |
| CS(=O)(=O)CCNCc1ccc(-c2ccc3ncnc(Nc4ccc(OCc5cccc(F)c5)c(Cl)c4)c3c2)o1 [Lapatinib] | > 10000 |
| Cn1cnc2c(F)c(Nc3ccc(Br)cc3Cl)c(C(=O)NOCCO)cc21 [Selumetinib] | > 10000 |
| Cc1nc(-c2cn3c(n2)-c2ccc(-c4cnn(C(C)(C)C(N)=O)c4)cc2OCC3)n(C(C)C)n1 [Taselisib] | 5680 |
| O=C(c1cc(Cc2n[nH]c(=O)c3ccccc23)ccc1F)N1CCN(C(=O)C2CC2)CC1 [Olaparib] | > 10000 |
| C[C@@H]1COCCN1c1cc(C2([S@](C)(=N)=O)CC2)nc(-c2ccnc3[nH]ccc23)n1 [AZD6738] | 2210 |
| COc1cc([C@@H]2c3cc4c(cc3[C@@H](O[C@@H]3O[C@@H]5CO[C@@H](C)O[C@H]5[C@H](O)[C@H]3O)[C@H]3COC(=O)[C@H]23)OCO4)cc(OC)c1O [Etoposide] | 4930 |
| N#Cc1cnc(Nc2cc(NC[C@H]3CNCCO3)c(C(F)(F)F)cn2)cn1 [SRA737] | 2860 |
| COc1cc(Nc2ncc3c(n2)-c2ccc(Cl)cc2C(c2c(F)cccc2OC)=NC3)ccc1C(=O)O [Alisertib] | 8030 |
| CC(=O)c1c(C)c2cnc(Nc3ccc(N4CCNCC4)cn3)nc2n(C2CCCC2)c1=O [Palbociclib] | > 10000 |
| NC1(C(=O)N[C@@H](CCO)c2ccc(Cl)cc2)CCN(c2ncnc3[nH]ccc23)CC1 [AZD5363] | 8270 |
| COc1cc2ncnc(Nc3ccc(F)c(Cl)c3)c2cc1OCCCN1CCOCC1 [Gefitinib] | > 10000 |
